According to patent EP4309647A1, “G[…] FRACTIONS OF PINE NUT SKIN, METHODS AND USES THEREOF” (Universidade de Aveiro, priority 2022, dated 2024):

Assay: Effect on cholesterol solubility / bioaccessibility in an in vitro intestinal model (GDCA bile salt micelles, 13C NMR quantification of [4-13C]cholesterol)
Settings: cholesterol 3.5 mM, amount equivalent to 3.5 mM β-sitosterol
Description: In an embodiment, to evaluate the effect of the lipophilic extracts on cholesterol solubility, an in vitro intestinal model with glycodehoxycholic acid (GDCA) at 37 °C and pH 7.4 was used.
In an embodiment, solutions of cholesterol labeled with carbon-13 at carbon 4 ([4-^13C]cholesterol) with or without pine nut skin extracts was prepared in azeotropic mixtures of chloroform/methanol (87:13, v/v). Films are formed by solvent evaporation under a stream of nitrogen and heating. To remove possible traces of organic solvents, the films with cholesterol were placed on a desiccator under vacuum during, for example, 30 minutes at room temperature. […]
In an embodiment, to evaluate this effect, the bioaccessibility of labelled cholesterol([4-^13C]cholesterol) was measured by ^13C NMR, using an in vitro intestinal model composed of glycodeoxycholic acid bile salt micelles and lipophilic extracts from pine nut skin and from the two separated fractions, added individually.
In an embodiment, the quantification of cholesterol by ^13C NMR was possible due to the utilization of an isotopomer of cholesterol fully enriched in ^13C in carbon 4, which has a typical peak at 44 ppm, distinguishable from GDCA resonances. […] This methodology allows to quantify [4-^13C] cholesterol which is emulsified on the bile salt micelles, that is, the available quantity which is likely to be absorbed (bioaccessible). […]

CC[C@H](CC[C@@H](C)[C@H]1CC[C@H]2[C@@H]3CC=C4C[C@@H](O)CC[C@]4(C)[C@H]3CC[C@]12C)C(C)C [β-Sitosterol]
cholesterol emulsified (solubilized, bioaccessible) (GDCA 50 mM): 1.6 mM | reduction of cholesterol solubility / bioaccessability relatively to the control (control = GDCA and [4-13C]cholesterol): 49%
